The values below come from paper PMC10663510 (Scientific Reports, 2023).

Data set [1] has as its target T1, MSMEG-3765 (TetR-like repressor) (Mycolicibacterium smegmatis, UniProt A0QYS0).
T1 construct: gene MSMEG_3765; homodimer; 211 residues per chain in model
Kind of data set: EMSA, release of […] bp operator DNA. Type of data set: binding. The following applies: 0.2 pmol DNA, 4 pmol protein, 400 or 4000 pmol drug in 20 ul; 20 mM HEPES pH 8.0, 75 mM NaCl, 10 mM MgCl2, 30 °C.

Data set [2] has as its system T2, MSMEG-3765 (TetR-like repressor) (Mycolicibacterium (Mycobacterium) smegmatis mc2 155?), ORF:4079dac7.
T2 sequence: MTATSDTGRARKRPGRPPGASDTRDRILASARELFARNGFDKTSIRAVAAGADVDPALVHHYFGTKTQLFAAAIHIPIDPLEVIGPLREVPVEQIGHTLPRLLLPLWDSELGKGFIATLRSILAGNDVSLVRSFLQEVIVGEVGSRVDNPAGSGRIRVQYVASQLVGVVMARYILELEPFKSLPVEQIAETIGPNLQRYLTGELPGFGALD
Kind of data set: EMSA. The following applies: 20 mM HEPES pH 8.0, 75 mM NaCl, 10 mM MgCl2, 5% glycerol; 20 ul, 30 C 10 min; native 8% PAGE at 4 C.

Data set [3] deals with the molecule itself. Kind of data set: circular dichroism (spectrum and thermal unfolding) compared with data back-calculated from monomer and dimer models; MSMEG-3765 in 20 mM Tris HCl, 500 mM NaCl, pH 8; CD spectra 200-260 nm at 5-85 °C; melting temperature and spectrum compared with predictions (SCooP, PDBMD2CD) from predicted monomeric and dimeric structures.

As to `O=C(O)c1cn(C2CC2)c2cc(N3CCNCC3)c(F)cc2c1=O` [ciprofloxacin], in data set [1], the “EMSA, release of 133 bp operator DNA” value is “rifampicin or ciprofloxacin are able to directly interfear with the binding of the MSMEG-3765 TetR”.
In the case of `CO[C@H]1/C=C/O[C@@]2(C)Oc3c(C)c(O)c4c(O)c(c(/C=N/N5CCN(C)CC5)c(O)c4c3C2=O)NC(=O)/C(C)=C\C=C\[C@H](C)[C@H](O)[C@@H](C)[C@@H](O)[C@@H](C)[C@H](OC(C)=O)[C@@H]1C` [rifampicin], the “EMSA, release of 133 bp operator DNA” value in data set [1] is “rifampicin or ciprofloxacin are able to directly interfear with the binding of the MSMEG-3765 TetR”.
“CTGCTGGAGTCCGCCGCCTGAGCCAGGCGTCGCCGACGCCGAAATGTGTCGACGCATCGTCTTCCCACCGGACGACGGCAGGCCTAGAATTCATTGCATGATGACTTCATCGCGCGATGAATTGTCAGCGACGGGGCCCG (double strand) [133 bp MSMEG_3762 upstream operator fragment]”: in data set [2], the binding result is on record as “binds”.

B1: TetR-like MSMEG-3765 repressor (natural protein)
chain: MTATSDTGRARKRPGRPPGASDTRDRILASARELFARNGFDKTSIRAVAAGADVDPALVHHYFGTKTQLFAAAIHIPIDPLEVIGPLREVPVEQIGHTLPRLLLPLWDSELGKGFIATLRSILAGNDVSLVRSFLQEVIVGEVGSRVDNPAGSGRIRVQYVASQLVGVVMARYILELEPFKSLPVEQIAETIGPNLQRYLTGELPGFGALD
notes: also called MSMEG-3765 TetR recombinant protein; TetR-like MSMEG-3765 protein
In the case of B1, the binding result in data set [3] was “binds”.
